# According to patent US5320955A, “10'desmethoxystreptonigrin production by Streptomyces albus” (priority 1992, dated 1994):
# Where “and” joins values, the source holds several entries; their conditions need not be identical. Identical values can stand only once. Like-named read-outs stand apart in the source and are kept apart here.
# Assays:
# tumor = conditions: background statement; cited from earlier work
# [1] = background statement; cited from earlier work
# [2] = tested on: HCT-116 human colon cells; assay: In vitro cytotoxicity vs. human tumor cell lines; assay type: cell-based; conditions: in triplicate, each printed
# Description: (§1) 10'-Desmethoxystreptonigrin was also tested for cytotoxicity in vitro against human tumor cell lines according to the method of Catino et al., "A microtitre cytotoxicity assay useful for the discovery of fermentation derived antitumor agents", Cancer Chemother., Pharmacol. 15: 240-243 (1985). Modification of the dye employed therein was made according to Scudiero et al., "Evaluation of a soluble tetrazolium/formazan assay for cell growth and drug sensitivity in culture using human and other tumor cell lines," Cancer Research 48:4827-4833,1 (1988). The assays were performed in triplicate against human ovarian (A2780DDP and A2780S) and colon (HCT-116, HCT/VM46 and HCT/VP35) tumor cell lines. Such cell lines are, for example, described by Long et al., "The effects of mitomycin on human colon carcinoma cells," J. Nat. Cancer Inst. 73: 787-792 (1984) (HCT-116) and Masuda et al., "Increased DNA repair as a mechanism of acquired resistance to cis-diamminedichloroplatinum (II) in human ovarian cancer cell lines," Cancer Research 48: 5713-5716 (1988) (A2780 ).
# [3] = tested on: HCT/VM46 human colon cells; assay: In vitro cytotoxicity vs. human tumor cell lines; assay type: cell-based; conditions: HCT/VM46, resistant to teniposide, in triplicate, each printed
# Description: as §1
# [4] = tested on: HCT/VP35 human colon cells; assay: In vitro cytotoxicity vs. human tumor cell lines; assay type: cell-based; conditions: in triplicate, each printed
# Description: as §1
# [5] = tested on: A2780S human ovarian cells; assay: cells; assay type: cell-based
# Description: as §1
# [6] = molecular target: protein-cysteine farnesyltransferase; assay: Inhibition of farnesylation of p21 ras protein; assay type: biochemical; conditions: assay of Manne et al.; read-out: IC50 in inhibiting the farnesylation of p21 ras protein
# P388 murine leukemia = assay: In vivo tests in mice, intraperitoneally implanted P388 murine leukemia model; conditions: intraperitoneally implanted P388, nontoxic levels
# Excerpt: ^+ In vivo tests in mice using the intraperitoneally implanted P388
# lifespan compared to control groups at nontoxic levels of
# 10desmethoxystreptonigrin.
# Pseudomonas cepacia = assay: Antibacterial activity in vitro, agar dilution MIC; assay type: cell-based; conditions: Burkholderia cepacia, SC14164; strain SC# 14164; 37° C., 18 hours; read-out: Minimum Inhibitory Concentration (MIC)
# Description: (§2) The following methodology was used to determine the minimum inhibitory concentration (hereinafter referred to as MIC) of 10'-desmethoxystreptonigrin against bacteria. The test organisms were grown in 20 ml of Antiobiotic Assay Broth (Difco) by inoculating the broth (in tubes) with a loopful of the organism from a BHI (Difco) agar slant. The inoculated tubes were incubated at 37° C. for 18 to 24 hours. These cultures were assumed to contain 10^9 colony forming units (CFU) per ml. The cultures were diluted 1:100 to give a final inoculum level of 10^7 CFU; dilutions were made with Yeast-Beef Broth (Difco). The test compound was dissolved in an appropriate diluent at a concentration of 1,000 μg/ml. Two-fold dilutions were made in Yeast-Beef Broth (Difco), resulting in a range from 1000 μg/ml to 0.5 μg/ml. A 1.5 ml portion of each dilution was placed into individual petri dishes to which 13.5 ml of K-10 agar was added. The composition of K-10 agar is:
# (§3) The medium was sterilized at 121° C. for 15 minutes at 15 lbs. psi.
# (§4) The final drug concentration in the agar ranged from 100 μg/mL to 0.05 μg/mL. Organism growth control plates containing agar only were prepared and inoculated before and after the test plates. The organisms were applied to the agar surface of each plate with a Denly Multipoint Inoculator (which delivers approximately 0.001 mL of each inoculum) resulting in a final inoculum of 10^4 CFU on the agar plate.
# (§5) The plates were incubated at 37° C. for 18 hours and the MICs determined. The MIC is the lowest concentration of compound inhibiting growth of the organism.
# Nocardia autotrophica = assay: Antibacterial activity in vitro, agar dilution MIC; assay type: cell-based; conditions: Pseudonocardia autotrophica, SC8994; strain SC# 8994; 37° C., 18 hours; read-out: Minimum Inhibitory Concentration (MIC)
# Description: as §2, §3, §4, §5
# Streptococcus faecalis = assay: Antibacterial activity in vitro, agar dilution MIC; assay type: cell-based; conditions: Enterococcus faecalis, 37° C., 18 hours, read-out: Minimum Inhibitory Concentration (MIC)
# Description: as §2, §3, §4, §5
# Pseudomonas aeruginosa = assay: Antibacterial activity in vitro, agar dilution MIC; assay type: cell-based; conditions: read-out: Minimum Inhibitory Concentration (MIC)
# Description: as §2, §3, §4, §5
# Salmonella typhosa = assay: Antibacterial activity in vitro, agar dilution MIC; assay type: cell-based; conditions: Salmonella enterica, SC1195 / TYPHOSA; strain SC# 1195; 37° C., 18 hours; read-out: Minimum Inhibitory Concentration (MIC)
# Description: as §2, §3, §4, §5
# Enterobacter cloacae = assay: Antibacterial activity in vitro, agar dilution MIC; assay type: cell-based; conditions: SC8236, strain SC# 8236, 37° C., 18 hours, read-out: Minimum Inhibitory Concentration (MIC)
# Description: as §2, §3, §4, §5
# Shigella sonnei = assay: Antibacterial activity in vitro, agar dilution MIC; assay type: cell-based; conditions: SC8449, strain SC# 8449, 37° C., 18 hours, read-out: Minimum Inhibitory Concentration (MIC)
# Description: as §2, §3, §4, §5
# Streptococcus agalactiae = assay: Antibacterial activity in vitro, agar dilution MIC; assay type: cell-based; conditions: 18 hours, read-out: Minimum Inhibitory Concentration (MIC)
# Description: as §2, §3, §4, §5
# Micrococcus luteus = assay: Antibacterial activity in vitro, agar dilution MIC; assay type: cell-based; conditions: SC2495, strain SC# 2495, 37° C., 18 hours, read-out: Minimum Inhibitory Concentration (MIC)
# Description: as §2, §3, §4, §5
# Proteus vulgaris = assay: Antibacterial activity in vitro, agar dilution MIC; assay type: cell-based; conditions: SC9416, strain SC# 9416, 37° C., 18 hours, read-out: Minimum Inhibitory Concentration (MIC)
# Description: as §2, §3, §4, §5
# Acinetobacter anitratus = assay: Antibacterial activity in vitro, agar dilution MIC; assay type: cell-based; conditions: Acinetobacter calcoaceticus, SC14207; strain SC# 14207; 37° C., 18 hours; read-out: Minimum Inhibitory Concentration (MIC)
# Description: as §2, §3, §4, §5
# [7] = tested on: Acinetobacter calcoaceticus; assay: Antibacterial activity in vitro, agar dilution MIC; assay type: cell-based; conditions: SC8333, strain SC# 8333, 37° C., 18 hours, read-out: Minimum Inhibitory Concentration (MIC)
# Description: as §2, §3, §4, §5
# Enterobacter aerogenes = assay: Antibacterial activity in vitro, agar dilution MIC; assay type: cell-based; conditions: Klebsiella aerogenes, SC10078; strain SC# 10078; 37° C., 18 hours; read-out: Minimum Inhibitory Concentration (MIC)
# Description: as §2, §3, §4, §5
# Mycobacterium fortuitum = assay: Antibacterial activity in vitro, agar dilution MIC; assay type: cell-based; conditions: Mycolicibacterium fortuitum, SC8571; strain SC# 8571; 37° C., 18 hours; read-out: Minimum Inhibitory Concentration (MIC)
# Description: as §2, §3, §4, §5
# Bacillus subtilis = assay: Antibacterial activity in vitro, agar dilution MIC; assay type: cell-based; conditions: SC3777, strain SC# 3777, 37° C., 18 hours, read-out: Minimum Inhibitory Concentration (MIC)
# Description: as §2, §3, §4, §5
# Proteus mirabilis = assay: Antibacterial activity in vitro, agar dilution MIC; assay type: cell-based; conditions: SC3855, strain SC# 3855, 37° C., 18 hours, read-out: Minimum Inhibitory Concentration (MIC)
# Description: as §2, §3, §4, §5
# Staphylococcus aureus = assay: Antibacterial activity in vitro, agar dilution MIC; assay type: cell-based; conditions: 18 hours, read-out: Minimum Inhibitory Concentration (MIC)
# Description: as §2, §3, §4, §5
# Klebsiella pneumoniae = assay: Antibacterial activity in vitro, agar dilution MIC; assay type: cell-based; conditions: 18 hours, read-out: Minimum Inhibitory Concentration (MIC)
# Description: as §2, §3, §4, §5
# Serratia marcescens = assay: Antibacterial activity in vitro, agar dilution MIC; assay type: cell-based; conditions: SC9783, strain SC# 9783, 37° C., 18 hours, read-out: Minimum Inhibitory Concentration (MIC)
# Description: as §2, §3, §4, §5
# Escherichia coli = assay: Antibacterial activity in vitro, agar dilution MIC; assay type: cell-based; conditions: 18 hours, read-out: Minimum Inhibitory Concentration (MIC)
# Description: as §2, §3, §4, §5
# Listerella monocytogenes = assay: Antibacterial activity in vitro, agar dilution MIC; assay type: cell-based; conditions: strain SC# 8523; 37° C., 18 hours; read-out: Minimum Inhibitory Concentration (MIC)
# Description: as §2, §3, §4, §5
structure (smiles),measurement,setting,value
"COC1=C(N)C(=O)c2nc(-c3nc(C(=O)O)c(C)c(-c4ccc(OC)c(OC)c4O)c3N)ccc2C1=O [streptonigrin, 5'-amino-6'-(7-amino-5,-8-dihydro-6-methoxy-5,8-dioxo-2-quinolyl)-4'-(8'-hydroxy-9',10'-dimethoxyphenyl)-3'-methyl-2'-pyridinecarboxylic acid]",activity as an antitumor antibiotic,tumor,has shown activity as an antitumor antibiotic
same,"toxic effect, for example, in bone marrow depression",[1],significant toxic effect
"COC1=C(N)C(=O)c2nc(-c3nc(C(=O)O)c(C)c(-c4cccc(OC)c4O)c3N)ccc2C1=O [10'-Desmethoxystreptonigrin, 5'-amino-6'-(7-amino-5,8-dihydro-6-methoxy-5,8-dioxo-2-quinolyl)-4'-(8'-hydroxy-9'-methoxyphenyl)-3'-methyl-2'-pyridinecarboxylic acid]",IC50 cytotoxicity,[2]; HCT-116,0.003 µg/mL
same,IC50,"[2]; Homo sapiens, HCT-116, HCT-116",0.006 µg/mL
same,IC50 cytotoxicity,[3],0.002 µg/mL and < 0.001 µg/mL
same,IC50,[3]; Homo sapiens,0.001 µg/mL
same,IC50 cytotoxicity,"[4]; HCT/VP35, resistant to etoposide",0.002 µg/mL
same,IC50,"[4]; Homo sapiens, HCT/VP35, HCT/VP35, resistant to etoposide",0.003 µg/mL
same,IC50,"[5]; Homo sapiens, read-out: IC50 cytotoxicity, A2780S, in triplicate, each printed",0.001 µg/mL
same,IC50 cytotoxicity,"[5]; in triplicate, each printed",0.002 µg/mL and < 0.001 µg/mL
same,IC50,[6],23.5 µM
same,increase in lifespan compared to control groups,P388 murine leukemia,no statistically significant increase
same,MIC,Pseudomonas cepacia,> 25 µg/mL
same,MIC,Nocardia autotrophica,3.1 µg/mL
same,MIC,"Streptococcus faecalis; SC9011, strain SC# 9011",1.6 µg/mL
same,MIC,"Streptococcus faecalis; SC9610, strain SC# 9610",1.6 µg/mL
same,MIC,"Pseudomonas aeruginosa; SC8329, 18 h",6.3 µg/mL
same,MIC,"Pseudomonas aeruginosa; SC9545, strain SC# 9545, 37° C., 18 hours",1.6 µg/mL
same,MIC,Salmonella typhosa,1.6 µg/mL
same,MIC,Enterobacter cloacae,> 100 µg/mL
same,MIC,Shigella sonnei,1.6 µg/mL
same,MIC,"Streptococcus agalactiae; SC9287, strain SC# 9287, 37° C.",1.6 µg/mL
same,MIC,"Streptococcus agalactiae; SC14008, strain SC# 14008, 37° C.",1.6 µg/mL
same,MIC,Micrococcus luteus,0.4 µg/mL
same,MIC,Proteus vulgaris,0.4 µg/mL
same,MIC,Acinetobacter anitratus,3.1 µg/mL
same,MIC,[7],> 100 µg/mL
same,MIC,Enterobacter aerogenes,25 µg/mL
same,MIC,Mycobacterium fortuitum,50 µg/mL
same,MIC,Bacillus subtilis,0.2 µg/mL
same,MIC,Proteus mirabilis,3.1 µg/mL
same,MIC,"Staphylococcus aureus; SC1276, strain SC# 1276, 37° C.",0.4 µg/mL
same,MIC,"Staphylococcus aureus; SC2399, strain SC# 2399, 37° C.",0.2 µg/mL
same,MIC,"Staphylococcus aureus; SC2400, strain SC# 2400, 37° C.",0.2 µg/mL
same,MIC,"Staphylococcus aureus; SC10165, strain SC# 10165, 37° C.",0.2 µg/mL
same,MIC,"Klebsiella pneumoniae; SC9527, strain SC# 9527, 37° C.",3.1 µg/mL
same,MIC,"Klebsiella pneumoniae; SC10440, strain SC# 10440, 37° C.",3.1 µg/mL
same,MIC,Serratia marcescens,6.3 µg/mL
same,MIC,"Escherichia coli; SC8294, strain SC# 8294, 37° C.",3.1 µg/mL
same,MIC,"Escherichia coli; SC10857, strain SC# 10857, 37° C.",0.8 µg/mL
same,MIC,"Escherichia coli; SC10896, strain SC# 10896, 37° C.",0.4 µg/mL
same,MIC,"Escherichia coli; SC10909, strain SC# 10909, 37° C.",< 0.05 µg/mL
same,MIC,"Escherichia coli; SC12864, strain SC# 12864, 37° C.",1.6 µg/mL
same,MIC,Listerella monocytogenes,1.6 µg/mL
